Experimental findings from US20080015198A1, “Substituted pyrazoline compounds, their preparation and use as medicaments” (LABORATORIOS DEL DR.ESTEVE S.A., priority 2004, published 2008) are described below.

For orientation: melting point means the temperature, or range, at which the solid turns liquid. By Ki is commonly meant a dissociation constant, usually derived from enzyme kinetics or from competition with a known ligand. A lower Ki goes with a stronger hold on the target.

The nature of series [1]: In-vivo testing for antiobesic activity. The note with it: rats.
Series [2] deals with cannabinoid receptors. Put plainly: Mouse tetrad model, agonistic effect. Particulars: 5 mg/kg i.v.; for Agonistic effect B: Hypothermia: unit assumed. Format: in vivo, mice. An excerpt:
(§1) Substances with affinity for cannabinoid receptors are known to produce a wide range of pharmacological effects. It is also known that intravenous administration of a substance with affinity for cannabinoid receptors in mice produces analgesia, hypothermia, sedation and catalepsy. Individually, none of these effects can be considered as proof that a tested substance has affinity for cannabinoid-receptors, since all of these effects are common for various classes of centrally active agents. However, substances, which show all of these effects, i.e. substances that are active in this so-called tetrad model are considered to have affinity for the cannabinoid receptors. It has further been shown that cannabinoid receptor antagonists are higly effective in blocking the effects of a cannabinoid agonist in the mouse tetrad model.
(§2) The tetrad model is described, for example, in the publication of A. C. Howlett et al, International Union of Pharmacology XXVII. Classification of Cannabinoid Receptors, Pharmacol Rev 54, 161-202, 2002 and David R. Compton et al., “In-vivo Characterization of a Specific Cannabinoid Receptor Antagonist (SR141716A): Inhibition of Tetrahydrocannbinol-induced Responses and Apparent Agonist Activity”, J. Pharmacol. Exp. Ther. 277 , 2, 586-594, 1996. The corresponding parts of the description are hereby incorporated by reference.
(§3) Male NMRI mice with a weight of 20-30 g (Harlan, Barcelona, Spain) are used in all of the following experiments.
(§4) Before testing in the behavioral procedures given below, mice are acclimatized to the experimental setting. Pre-Treatment control values are determined for analgesia hot plate latency (in seconds), rectal temperature, sedation and catalepsy.
In order to determine the agonistic activty of the substance to be tested, the mice are injected intravenously with the substance to be tested or the vehicle alone. 15 minutes after injection, latency in hot plate analgesia is measured. Rectal temperature, sedation and catalepsy are measured 20 minutes after injection.
(§5) The hot plate analgesia is determined according to the method described in Woolfe D. et al. “The evaluation of analgesic action of pethidine hydrochloride (Demerol)”, J. Pharmacol. Exp. Ther. 80, 300-307, 1944.
(§6) The mice are placed on a hot plate (Harvard Analgesimeter) at 55±0.5° C. until they show a painful sensation by licking their paws or jumping and the time for these sensations to occur is recorded. This reading is considered the basal value (B). The maximum time limit the mice are allowed to remain on the hot plate in absence of any painful response is 40 seconds in order to prevent skin damage. This period is called the cut-off time (PC).
(§7) Fifteen minutes after the administration of the substance to be tested, the mice are again placed on the hot plate and the afore described procedure is repeated. This period is called the post-treatment reading (PT).
(§8) The degree of analgesia is calculated from the formula:
(§9) % MPE of Analgesia=(PT−B)/(PC−B)×100
(§10) Sedation and ataxia is determined according to the method described in Desmet L. K. C. et al. “Anticonvulsive properties of Cinarizine and Flunarizine in Rats and Mice”, Arzneim. -Forsch. (Frug Res) 25, 9, 1975.
(§11) The percentage of sedation is determined according to the formula:
(§12) % of sedation=arithmetic mean/3×100
(§13) Hypothermia is determined according to the method described in David R. Compton et. al. “In-vivo Characterization of a Specific Cannabinoid Receptor Antagonist (SR141716A) Inhibition of Tetrahydrocannbinol-induced Responses and Apparent Agonist Activity”, J. Pharmacol Exp Ther. 277, 2, 586-594, 1996.

Series [3] deals with cannabinoid receptors. Put plainly: Mouse tetrad model, antagonistic effect against Win 55212-2. Format: in vivo, mice. Particulars: 5 mg/kg i.v. prior to Win 55212-2 in a dose of 1.25 mg/kg i.v.; for Antagonistic effect A: Hot-Plate test / Antagonistic effect B: Hypothermia: unit assumed.
Description: as §1, §2, §3, §4
In order to determine the antagonistic activity the identical procedure is used as for the determination of the agonistic effects, but with the difference that the substance to be evaluated for its antagonistic activity is injectected 5 minutes before the intravenous injection of 1.25 mg/kg Win-55,212 a known cannabinoid-receptor agonist.
as §5, §6, §7, §8, §9, §10, §11, §12, §13
A general note: Hot-plate and tail-flick tests time the reaction to a heat stimulus.

The nature of series [4]: In-vivo testing for antidepressant activity, water despair test. As for the experimental part: The in-vivo testing for antidepressant activity of the inventive pyrazoline compounds in the water despair test was carried out as described above.
Series [5] has as its target T1, CB2-Receptor (Homo sapiens, UniProt P34972).
T1 construct: purchased Receptor Biology, Inc
The series is described as follows: In-vitro determination of affinity to CB2-receptor, radioligand [3H]-CP55940. Format: binding. As for the experimental part:
Brockie et al., “Agonist-inverse agonist characterization at CB1 and CB2 cannabinoid receptors of L-759633, L759656 and AM630”, British Journal of Pharmacology, 126, 665-672, (1999), whereby the transfected human CB1 and CB2 receptors of Receptor Biology, Inc. are used. The radioligand used for both receptors is [^3H]-CP55940.
The affinity of the inventive substituted pyrazoline compounds to CB1/CB2 receptors was determined as described above.

T1 sequence (P34972 whole entry): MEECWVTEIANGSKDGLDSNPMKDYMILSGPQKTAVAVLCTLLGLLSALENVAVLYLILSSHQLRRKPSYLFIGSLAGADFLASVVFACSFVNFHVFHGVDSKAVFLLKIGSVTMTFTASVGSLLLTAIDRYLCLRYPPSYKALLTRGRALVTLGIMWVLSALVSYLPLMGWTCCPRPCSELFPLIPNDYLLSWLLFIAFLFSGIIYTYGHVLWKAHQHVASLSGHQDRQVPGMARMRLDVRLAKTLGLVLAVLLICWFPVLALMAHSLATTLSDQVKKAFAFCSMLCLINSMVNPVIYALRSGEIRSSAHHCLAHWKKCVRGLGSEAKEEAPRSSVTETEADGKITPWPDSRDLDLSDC

`O=C(Nn1cnnc1)C1=NN(c2ccc(Cl)cc2Cl)C(c2ccc(Cl)cc2)C1` (stereo not shown) displayed a melting point of 134 to 138 °C.
On the same count and under the same terms, then `CN1CCN(NC(=O)C2=NN(c3ccc(Cl)cc3Cl)C(c3ccc(Cl)cc3)C2)CC1.Cl` (stereo not shown), with 150 to 155 °C.
Turning to `O=C(NN1CCCCC1)C1=NN(c2ccc(Cl)cc2Cl)C(c2ccc(Cl)cc2)C1` (stereo not shown) [Example 1, N-piperidinyl-5-(4-chlorophenyl)-1-(2,4-dichlorophenyl)-4,5-dihydro-1H-pyrazole-3-carboxamide], the body weight entry in series [1] (10 mg/kg intraperitoneally daily over 14 days, FIG. 1) was “lowered”. Moreover, the food intake entry in series [1] (10 mg/kg intraperitoneally daily over 14 days, FIG. 2) is on record as “reduction of food intake”. In series [1] (after end of 14 days of 10 mg/kg i.p. daily, FIG. 1), the “body weight effect after the treatment is ended” value was “also observed after the treatment is ended”. For the same compound, in series [2], the Agonistic effect A: Hot-Plate test was found to be 0%, the Agonistic effect C: Catalepsy is 0%, the “Agonistic effect D: Sedation” value stood at 0 and the Agonistic effect B: Hypothermia stood at 0%. In series [3], the Antagonistic effect C: Catalepsy is 100%, the Antagonistic effect D: Sedation turned out to be 100%, the Antagonistic effect A: Hot-Plate test turned out to be 74% and the Antagonistic effect B: Hypothermia was determined as 100%. Moreover, in series [4], the immobility time entry is listed as “positive effects” and the struggling time result is recorded as “positive effects”.
For the compound `O=C(C1=NN(c2ccc(Cl)cc2Cl)C(c2ccc(Cl)cc2)C1)N1CCCCC1` (stereo not shown) [Example 5, [5-(4-Chloro-phenyl)-1-(2,4-dichloro-phenyl)-4,5-dihydro-1H-pyrazol-3-yl]-piperidin-1-yl-methanone], the melting point lay in the range of 105 to 110 °C. Besides, in series [2], the Agonistic effect A: Hot-Plate test stood at 0%, the Agonistic effect C: Catalepsy is 0%, the “Agonistic effect D: Sedation” value was 0 and the Agonistic effect B: Hypothermia amounted to 50%. Also, in series [3], the Antagonistic effect C: Catalepsy came out at 20%, the Antagonistic effect D: Sedation turned out to be 20%, the Antagonistic effect A: Hot-Plate test is 50% and the Antagonistic effect B: Hypothermia was determined as 40%. In series [5], this compound had a Ki of approximately 1000 nM.
